According to PMC3248459, “A Photocytes-Associated Fatty Acid-Binding Protein from the Light Organ of Adult Taiwanese Firefly, Luciola cerata” (PLoS ONE, 2011):
Where two headings read alike, the source gives them in different places.

Key:
Assay type in all cases: binding
recombinant lcFABP [1] = target: T1, recombinant lcFABP (Luciola cerata, UniProt G1FKW0); assay: ANS fluorescence titration of recombinant lcFABP
Description: (§1) The binding property of lcFABP to fatty acids was analyzed by a fluorescence displacement assay using 1-anilinonaphthalene-8-sulfonic acid (ANS) as fluorescent probe. This assay utilizes ANS's property of emitting intense fluorescence when bind to the hydrophobic region of protein non-covalently. The displacement of ANS from ligand binding site of FABPs by fatty acid or other hydrophobic ligand will result in the reduction of fluorescence. In this way, the apparent inhibition constants (Ki) of fatty acid or hydrophobic ligand to FABPs can be measured, [25]-[27].
Recombinant lcFABP was overexpressed in E. coli cells, and purified by a two-step chromatography for ligand binding assay. […]
Fatty acid binding of recombinant lcFABP was assessed by a competitive displacement assay using fluorescence probe ANS as described previously, [27]. F7000 fluorescence spectrophotometer (Hitachi, Tokyo, Japan) was used for measuring the ANS fluorescence signal at the emission 470 nm following excitation at 375 nm. […] The apparent dissociation constant (Kd) of ANS-lcFABP complex was measured by nonlinear regression analysis of the binding data as described previously. To evaluated the binding of fatty acids to lcFABP, 2 µM lcFABP was pre-equilibrated with 40 µM ANS for 2 min in assay buffer, and then titrated with increasing concentrations of fatty acids until the reduction of fluorescence became saturate. […]

recombinant lcFABP [2] = target: T1, recombinant lcFABP; assay: fluorescence (ANS) displacement assay with fatty acids; details: for binding strength of lcFABP to ligand (in words): ANS displacement assay, recombinant lcFABP
Description: as §1
Recombinant lcFABP was overexpressed in E. coli cells, and purified by a two-step chromatography for ligand binding assay. […] After that, the binding of fatty acid to lcFABP was examined by a competitive displacement titration. […] Conversely, the lcFABP binds moderately to saturated dodecanoic acid (C12:0), monounsaturated oleic acid (C18:1) and polyunsaturated arachidonic acid (C20:4), and poorly to the saturated capric acid (C10:0). These binding studies confirmed that the recombinant lcFABP is a functional protein for fatty acids binding as other reported FABPs, [16].
Fatty acid binding of recombinant lcFABP was assessed by a competitive displacement assay using fluorescence probe ANS as described previously, [27]. F7000 fluorescence spectrophotometer (Hitachi, Tokyo, Japan) was used for measuring the ANS fluorescence signal at the emission 470 nm following excitation at 375 nm. All measurements were carried out in an assay buffer contained 50 mM sodium phosphate, pH 7.5, 140 mM KCl, 5 mM β-ME at 25°C under a dim light. ANS and various fatty acids were prepared freshly in absolute ethanol before used. To evaluate ANS-lcFABP interaction, 2 µM lcFABP in a final volume of 2 ml assay buffer was titrated with 1∼2 ul of ANS from a initial concentration of 0 µM to 80 µM. The apparent dissociation constant (Kd) of ANS-lcFABP complex was measured by nonlinear regression analysis of the binding data as described previously. To evaluated the binding of fatty acids to lcFABP, 2 µM lcFABP was pre-equilibrated with 40 µM ANS for 2 min in assay buffer, and then titrated with increasing concentrations of fatty acids until the reduction of fluorescence became saturate. The apparent inhibition constant (Ki) of each fatty acid to ANS-lcFABP complex was calculated from the displacement data as described previously. All binding experiments were repeated at least three times.

recombinant lcFABP [3] = target: T1, recombinant lcFABP; assay: time-dependent ANS displacement assay with D-luciferin and palmitic acid (Fig. S2)
Description: In this study, we also investigated whether lcFABP could bind firefly luciferin using ANS displacement assay (Fig. S2).
Fluorescence change was recorded after successively adding lcFABP (until final concentration become 2 µM at 100 s), D-luciferin (Luc; 1 µM at 200 s and 2 µM at 300 s) or palmitic acid (PA; 1 µM at 200 s and 2 µM at 300 s), and the competitive palmitic acid (2 µM at 400 s) or D-luciferin (2 µM at 400 s) to into the ANS (40 µM) containing buffer using time-dependent model. The results have been subtracted of D-luciferin's intrinsic-fluorescence. All experiments are monitored under a detected wavelength of Ex: 370 nm and Em: 450 nm to reduce the interference of D-luciferin intrinsic-fluorescence to the assay. (TIF) Click here for additional data file.

[4] = apparent inhibition constant, 2 µM lcFABP pre-equilibrated with 40 µM ANS, pH 7.5, 25°C, at least three repeats, read-out: Ki

T1 sequence (G1FKW0 entry or part of it): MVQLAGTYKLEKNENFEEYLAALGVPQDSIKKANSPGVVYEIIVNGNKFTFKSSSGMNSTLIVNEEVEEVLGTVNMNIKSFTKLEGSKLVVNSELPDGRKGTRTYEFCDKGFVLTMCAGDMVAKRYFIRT

Structure (SMILES) | Ki (recombinant lcFABP [2]) | binding strength of lcFABP to ligand (in words) (recombinant lcFABP [2]) | also measured
O=S(=O)(O)c1cccc2cccc(Nc3ccccc3)c12 [ANS, 1-anilinonaphthalene-8-sulfonic acid] | – | – | Kd (recombinant lcFABP [1]): 11200 ± 1500 nM
CCCCC/C=C\C/C=C\C/C=C\C/C=C\CCCC(=O)O [Arachidonic acid] | 1590 ± 160 nM | moderately | –
CCCCCCCCCC(=O)O [Capric acid] | – | poorly | Ki (recombinant lcFABP [2]; [4]): 118000 ± 6240 nM
CCCCCCCCCCCC(=O)O [Dodecanoic acid] | 1670 ± 150 nM | moderately | –
CCCCCCCCCCCCCC(=O)O [Myristic acid] | 640 ± 140 nM | strongly | –
CCCCCCCC/C=C\CCCCCCCC(=O)O [Oleic acid] | 1000 ± 170 nM | moderately | –
CCCCCCCCCCCCCCCC(=O)O [Palmitic acid] | 550 ± 120 nM | strongly | reduction of fluorescence (recombinant lcFABP [3]; 2 µM lcFABP, 40 µM ANS, ligand added at 1-2 µM, luciferin intrinsic fluorescence subtracted, Ex 370 nm, Em 450 nm): ≤ 40%
CCCCCCCCCCCCCCCCCC(=O)O [Steric acid] | – | strongly | Ki (recombinant lcFABP [2]; [4]): 250 ± 10 nM
O=C(O)[C@H]1CSC(c2nc3ccc(O)cc3s2)=N1 [luciferin, D-luciferin] | – | – | interaction of lcFABP with ligand (in words) (recombinant lcFABP [3]): weakly; reduction of fluorescence (recombinant lcFABP [3]): about 12%
